In ChEMBL document CHEMBL1129180, “Phosphoramidate derivatives of 2,3-didehydro-2,3-dideoxyadenosine [d4A] have markedly improved anti-HIV potency and selectivity” (Bioorg Med Chem Lett, 1996):
Converted amounts (≈) assume the structure as drawn.

How the values were obtained:
[1] = Compound was evaluated cytotoxicity against moloney sarcoma virus (MSV) infected C3H cell cultures.; assay type: functional; conditions: Mus musculus
[2] = Compound was evaluated minimum inhibitory concentration against moloney sarcoma virus (MSV) infected C3H cell cultures.; assay type: functional; conditions: Mus musculus
CCRF-CEM [3] = test: Compound was evaluated for antiviral activity against HIV-1 (IIIB) infected CEM cells.; assay type: functional, cell-based; conditions: Homo sapiens
CCRF-CEM [4] = test: Compound was evaluated for antiviral activity against HIV-2 (ROD) infected CEM cells.; assay type: functional, cell-based; conditions: Homo sapiens
CCRF-CEM [5] = test: Compound was evaluated for cytotoxic activity against CEM cells.; assay type: functional; conditions: Homo sapiens
[6] = Ratio of CC50/EC50 was calculated; assay type: functional

Compound	CC50 [1] [µM]	MIC [2] [µM]	EC50 (CCRF-CEM [3]) [µM]	EC50 (CCRF-CEM [4]) [µM]	CC50 (CCRF-CEM [5]) [µM]	Selectivity index [6]
CC(NP(=O)(OCC1C=CC(n2cnc3c(N)ncnc32)O1)Oc1ccccc1)C(=O)OCc1ccccc1 (configuration not stated)	> 4	0.2 (≈ 0.11 µg/mL)	0.008	0.008	1.9	237
COC(=O)C(C)NP(=O)(OCC1C=CC(n2cnc3c(N)ncnc32)O1)Oc1ccccc1 (configuration not stated)	> 100	9.4 (≈ 4.46 µg/mL)	0.006	0.018	3.8	633
Cc1cn([C@H]2C[C@H](N=[N+]=[N-])[C@@H](CO)O2)c(=O)[nH]c1=O [ZIDOVUDINE]	> 20	0.02 (≈ 0.00534 µg/mL)			> 100	> 20000
Nc1ncnc2c1ncn2[C@H]1C=C[C@@H](CO)O1	> 100	31 (≈ 7.23 µg/mL)	20	20	91	4.5
